From PubChem BioAssay (NCI)
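1) Cells in 96-well plates. 2) Compound, 48 h, 5 concentrations. 3) Linear interpolation between surrounding doses. 4) Unreached endpoint = highest concentration. Here, GI50 denotes the concentration required for 50% inhibition of growth. The concentration for full growth arrest is given as TGI.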

What was measured:
Assay in all cases: inhibition of tumour cell growth, NCI panel, 48 h
[1] = system: 786-0 renal
[2] = system: A498 renal
[3] = system: A549 NSCLC
[4] = system: ACHN renal
[5] = system: BT-549 breast
[6] = system: CAKI-1 renal
[7] = system: CCRF-CEM leukemia
[8] = system: COLO 205 colon
[9] = system: DU-145 prostate
[10] = system: EKVX NSCLC
[11] = system: HCC-2998 colon
[12] = system: HCT-116 colon
[13] = system: HCT-15 colon
[14] = system: HL-60(TB) leukemia
[15] = system: HOP-62 NSCLC
[16] = system: HOP-92 NSCLC
[17] = system: HS 578T breast
[18] = system: HT29 colon
[19] = system: IGROV1 ovarian
[20] = system: K-562 leukemia
[21] = system: KM12 colon
[22] = system: LOX IMVI melanoma
[23] = system: M14 melanoma
[24] = system: MALME-3M melanoma
[25] = system: MCF7 breast
[26] = system: MDA-MB-231 breast
[27] = system: MDA-MB-435
[28] = system: MOLT-4 leukemia
[29] = system: NCI-H226 lung
[30] = system: NCI-H23 lung
[31] = system: NCI-H460 lung
[32] = system: NCI-H522 lung
[33] = system: NCI/ADR-RES ovarian
[34] = system: OVCAR-3 ovarian
[35] = system: OVCAR-4 ovarian
[36] = system: OVCAR-5 ovarian
[37] = system: OVCAR-8 ovarian
[38] = system: PC-3 prostate
[39] = system: RPMI-8226 leukemia
[40] = system: RXF 393 renal
[41] = system: SF-268 CNS
[42] = system: SF-295 CNS
[43] = system: SF-539 CNS
[44] = system: SK-MEL-2 melanoma
[45] = system: SK-MEL-28 melanoma
[46] = system: SK-MEL-5 melanoma
[47] = system: SK-OV-3 ovarian
[48] = system: SN12C renal
[49] = system: SNB-19 CNS
[50] = system: SNB-75 CNS
[51] = system: SR leukemia
[52] = system: SW-620 colon
[53] = system: T-47D breast
[54] = system: TK-10 renal
[55] = system: U251 CNS
[56] = system: UACC-257 melanoma
[57] = system: UACC-62 melanoma
[58] = system: UO-31 renal
[59] = system: MDA-N

Q: With `Cc1ccc(-c2nc(-c3cn(C)c4ncccc34)cs2)cc1` as the molecule, how does the GI50 [1] read?
A: 6.09 µM

Q: And the TGI [1]?
A: 19.8 µM

Q: And the GI50 [2]?
A: 0.277 µM

Q: What about the TGI [2] of the same molecule?
A: 8.24 µM

Q: And the GI50 [3]?
A: 5.62 µM

Q: What about the TGI [3] of the same molecule?
A: 21.3 µM

Q: And the GI50 [4]?
A: 7.65 µM

Q: What about the TGI [4] of the same molecule?
A: 29.2 µM

Q: What about the GI50 [5] of the same molecule?
A: 8 µM

Q: What about the TGI [5] of the same molecule?
A: 32.4 µM

Q: And the GI50 [6]?
A: 2.27 µM

Q: And the TGI [6]?
A: 15.2 µM

Q: What about the GI50 [7] of the same molecule?
A: 14.7 µM

Q: And the TGI [7]?
A: > 80 µM

Q: And the GI50 [8]?
A: 2.82 µM

Q: And the TGI [8]?
A: 10.5 µM

Q: What about the GI50 [9] of the same molecule?
A: 7.42 µM

Q: And the TGI [9]?
A: 21.3 µM

Q: What about the GI50 [10] of the same molecule?
A: 4.61 µM

Q: And the TGI [10]?
A: 43.7 µM

Q: What about the GI50 [11] of the same molecule?
A: 8.96 µM

Q: And the TGI [11]?
A: 22.8 µM

Q: What about the GI50 [12] of the same molecule?
A: 3.11 µM

Q: What about the TGI [12] of the same molecule?
A: 12.3 µM

Q: And the GI50 [13]?
A: 3.01 µM

Q: What about the TGI [13] of the same molecule?
A: 21.3 µM

Q: What about the GI50 [14] of the same molecule?
A: 2.54 µM

Q: And the TGI [14]?
A: 26.2 µM

Q: And the GI50 [15]?
A: 7.71 µM

Q: And the TGI [15]?
A: 22 µM

Q: What about the GI50 [16] of the same molecule?
A: 4.73 µM

Q: And the TGI [16]?
A: 23.8 µM

Q: And the GI50 [17]?
A: 4.71 µM

Q: And the TGI [17]?
A: 26.6 µM

Q: And the GI50 [18]?
A: 2.32 µM

Q: What about the TGI [18] of the same molecule?
A: 8.51 µM

Q: And the GI50 [19]?
A: 7.26 µM

Q: What about the TGI [19] of the same molecule?
A: 32.2 µM

Q: And the GI50 [20]?
A: 1.91 µM

Q: What about the TGI [20] of the same molecule?
A: > 34.5 µM

Q: And the GI50 [21]?
A: 1.2 µM

Q: And the TGI [21]?
A: 14 µM

Q: And the GI50 [22]?
A: 5.06 µM

Q: What about the TGI [22] of the same molecule?
A: 18.1 µM

Q: What about the GI50 [23] of the same molecule?
A: 2.35 µM

Q: And the TGI [23]?
A: 8.18 µM

Q: What about the GI50 [24] of the same molecule?
A: 4.85 µM

Q: And the TGI [24]?
A: 26.5 µM

Q: What about the GI50 [25] of the same molecule?
A: 2.39 µM

Q: What about the TGI [25] of the same molecule?
A: 15.9 µM

Q: And the GI50 [26]?
A: 4.88 µM

Q: What about the TGI [26] of the same molecule?
A: 21.5 µM

Q: What about the GI50 [27] of the same molecule?
A: 0.402 µM

Q: And the TGI [27]?
A: 2.88 µM

Q: What about the GI50 [28] of the same molecule?
A: 4.24 µM

Q: And the TGI [28]?
A: 30.3 µM

Q: And the GI50 [29]?
A: 4.35 µM

Q: And the TGI [29]?
A: 24.7 µM

Q: And the GI50 [30]?
A: 7.12 µM

Q: And the TGI [30]?
A: 31.3 µM

Q: And the GI50 [31]?
A: 3.43 µM

Q: What about the TGI [31] of the same molecule?
A: 14.9 µM

Q: And the GI50 [32]?
A: 2.14 µM

Q: What about the TGI [32] of the same molecule?
A: 16.7 µM

Q: And the GI50 [33]?
A: 1.42 µM

Q: What about the TGI [33] of the same molecule?
A: 6.8 µM

Q: And the GI50 [34]?
A: 3.23 µM

Q: What about the TGI [34] of the same molecule?
A: 11.3 µM

Q: What about the GI50 [35] of the same molecule?
A: 12.8 µM

Q: What about the TGI [35] of the same molecule?
A: 46.4 µM

Q: And the GI50 [36]?
A: 7.78 µM

Q: What about the TGI [36] of the same molecule?
A: 26.5 µM

Q: What about the GI50 [37] of the same molecule?
A: 8.99 µM

Q: And the TGI [37]?
A: 38.9 µM

Q: What about the GI50 [38] of the same molecule?
A: 4.49 µM

Q: What about the TGI [38] of the same molecule?
A: > 44.1 µM

Q: What about the GI50 [39] of the same molecule?
A: 7.37 µM

Q: And the TGI [39]?
A: > 69.8 µM

Q: What about the GI50 [40] of the same molecule?
A: 2.99 µM

Q: And the TGI [40]?
A: 13.7 µM

Q: What about the GI50 [41] of the same molecule?
A: 7.83 µM

Q: What about the TGI [41] of the same molecule?
A: 39.2 µM

Q: And the GI50 [42]?
A: 2.3 µM

Q: What about the TGI [42] of the same molecule?
A: 11.1 µM

Q: What about the GI50 [43] of the same molecule?
A: 5.59 µM

Q: And the TGI [43]?
A: 18.7 µM

Q: And the GI50 [44]?
A: 6.77 µM

Q: And the TGI [44]?
A: 34 µM

Q: And the GI50 [45]?
A: 10.2 µM

Q: What about the TGI [45] of the same molecule?
A: 26.4 µM

Q: What about the GI50 [46] of the same molecule?
A: 3.7 µM

Q: And the TGI [46]?
A: 14.6 µM

Q: And the GI50 [47]?
A: 6.86 µM

Q: What about the TGI [47] of the same molecule?
A: 27.5 µM

Q: And the GI50 [48]?
A: 5 µM

Q: And the TGI [48]?
A: 22.8 µM

Q: What about the GI50 [49] of the same molecule?
A: 5.27 µM

Q: What about the TGI [49] of the same molecule?
A: 30.5 µM

Q: What about the GI50 [50] of the same molecule?
A: 4.16 µM

Q: And the TGI [50]?
A: 22.4 µM

Q: And the GI50 [51]?
A: 0.442 µM

Q: What about the TGI [51] of the same molecule?
A: 21.8 µM

Q: And the GI50 [52]?
A: 1.95 µM

Q: What about the TGI [52] of the same molecule?
A: 8.91 µM

Q: And the GI50 [53]?
A: 2.53 µM

Q: And the TGI [53]?
A: 18.6 µM

Q: What about the GI50 [54] of the same molecule?
A: 6.74 µM

Q: And the TGI [54]?
A: 21.6 µM

Q: What about the GI50 [55] of the same molecule?
A: 4.4 µM

Q: What about the TGI [55] of the same molecule?
A: 17 µM

Q: What about the GI50 [56] of the same molecule?
A: 9.41 µM

Q: And the TGI [56]?
A: 28 µM

Q: What about the GI50 [57] of the same molecule?
A: 3.17 µM

Q: And the TGI [57]?
A: 16.3 µM

Q: And the GI50 [58]?
A: 8.96 µM

Q: And the TGI [58]?
A: 40.5 µM

Q: How did the TGI [1] turn out when `Cc1cc(O)c(/C=N/C(=S)Nc2ccccc2)c(=O)o1` was run?
A: > 100 µM

Q: What about the TGI [2] of the same molecule?
A: > 100 µM

Q: What about the TGI [3] of the same molecule?
A: > 100 µM

Q: What about the TGI [4] of the same molecule?
A: > 100 µM

Q: And the TGI [5]?
A: > 100 µM

Q: What about the TGI [6] of the same molecule?
A: > 100 µM

Q: And the TGI [7]?
A: > 100 µM

Q: What about the TGI [8] of the same molecule?
A: > 100 µM

Q: And the TGI [9]?
A: > 100 µM

Q: What about the TGI [10] of the same molecule?
A: > 100 µM

Q: And the TGI [11]?
A: > 100 µM

Q: And the TGI [12]?
A: > 100 µM

Q: And the TGI [13]?
A: > 100 µM

Q: And the TGI [14]?
A: > 100 µM

Q: And the TGI [15]?
A: > 100 µM

Q: And the TGI [16]?
A: > 100 µM

Q: And the TGI [17]?
A: > 100 µM

Q: What about the TGI [18] of the same molecule?
A: > 100 µM

Q: What about the TGI [19] of the same molecule?
A: > 100 µM

Q: What about the TGI [20] of the same molecule?
A: > 100 µM

Q: And the TGI [21]?
A: > 100 µM

Q: And the TGI [22]?
A: > 100 µM

Q: What about the TGI [23] of the same molecule?
A: > 100 µM

Q: What about the TGI [25] of the same molecule?
A: > 100 µM

Q: What about the TGI [26] of the same molecule?
A: > 100 µM

Q: What about the TGI [27] of the same molecule?
A: > 100 µM

Q: And the TGI [59]?
A: > 100 µM

Q: And the TGI [28]?
A: > 100 µM

Q: And the TGI [29]?
A: > 100 µM

Q: What about the TGI [30] of the same molecule?
A: > 100 µM

Q: And the TGI [31]?
A: > 100 µM

Q: And the TGI [32]?
A: > 100 µM

Q: What about the TGI [33] of the same molecule?
A: > 100 µM

Q: And the TGI [34]?
A: > 100 µM

Q: And the TGI [35]?
A: > 100 µM

Q: What about the TGI [36] of the same molecule?
A: > 100 µM

Q: What about the TGI [37] of the same molecule?
A: > 100 µM

Q: And the TGI [38]?
A: > 100 µM

Q: And the TGI [39]?
A: > 100 µM

Q: And the TGI [40]?
A: > 100 µM

Q: What about the TGI [41] of the same molecule?
A: > 100 µM

Q: And the TGI [42]?
A: > 100 µM

Q: What about the TGI [43] of the same molecule?
A: > 100 µM

Q: And the TGI [44]?
A: > 100 µM

Q: What about the TGI [46] of the same molecule?
A: > 100 µM

Q: And the TGI [47]?
A: > 100 µM

Q: What about the TGI [48] of the same molecule?
A: > 100 µM

Q: And the TGI [49]?
A: > 100 µM

Q: What about the TGI [50] of the same molecule?
A: > 100 µM

Q: And the TGI [52]?
A: > 100 µM

Q: What about the TGI [53] of the same molecule?
A: > 100 µM

Q: And the TGI [54]?
A: > 100 µM

Q: What about the TGI [55] of the same molecule?
A: > 100 µM

Q: And the TGI [56]?
A: > 100 µM

Q: And the TGI [57]?
A: > 100 µM

Q: What about the TGI [58] of the same molecule?
A: > 100 µM
